Tested on: HCV genotype 1b
Assay: HCV 1b replicon luciferase assay
Type: cell-based
Details: Hepatitis C virus, 48 h, read-out: EC50 in the 48 hour 1b replicon assay, 48 hour
Excerpt: A suitable 1b HCV RNA replicon assay uses the Huh7 cell line which contains an HCV 1b RNA replicon with a stable luciferase (LUC) reporter. This construct contains modifications that make the cell line more robust and provides stable LUC expression for antiviral screening. The LUC reporter is used as an indirect measure of HCV replication. The activity of the LUC reporter is directly proportional to HCV RNA levels and positive control antiviral compounds behave comparably using LUC endpoints. […]
Fresh growth medium is prepared just before use. The container used in the procedure is a 10 cm diameter culture dish. HCV replicon reporter cell lines are used. Prepare complete medium: add FBS and appropriate additives as described in “Culture Media”, below. Pre-warm the medium in a 37° C. thermostat water bath. Remove the dish from a 37° C. CO2 incubator. Check the cell name and complete medium and passage number marked on the dish. Aspirate the medium carefully and add 1 ml PBS to rinse the cells. Remove and discard the solution and add 1 ml of 0.25% Trypsin/0.02% EDTA. Rinse the cells with the added Trypsin/EDTA to ensure all the cells have been rinsed. Remove the Trypsin/EDTA with a vacuum pump and incubate at 37° C. for 3-5 minutes. Examine the cell morphology under an inverted microscope to confirm that a single cell suspension is clearly visible. Add 3 ml of complete medium to the dish and suspend the cell by gentle pipetting. Count the cell numbers with a hematometer. Adjust cell density to 100 k/ml by adding appropriate volume of the complete medium. Add 100 μl of cell suspension to each well of a 96-well white plate; the cell density is thus 10 k per well. Mark the plate with cell name, passage number, seeding density, date and the name of the operator. Place the 96-well assay plate in 37° C. 5% CO2 incubator for 24 hours.
Compounds are prepared or provided at 25 mM in 100% DMSO. This is the compound stock solution. The dilution procedure should be performed in a cell culture hood. Dispense the stock solution into the second column of a 96-well plate. Prepare 9-step (10 concentrations total), 5-fold serial dilutions by transferring 10 μA of the compound into the next well containing 40 μA of DMSO. Repeat for all compounds. Aspirate 2 μl of the above compound solution from each well and add into 198 μl complete media using a 12-channel pipetter to obtain the 10-fold concentration compound solution with 1% DMSO, mix well.
Remove the 96-well assay plate from the 37° C./5% CO2 incubator, examine the cell morphology under an inverted microscope. In a cell culture hood, add 10 μl of the 10× concentration compounds solution into each well on the 96-well assay plate. All compound's dose responses are done in duplicate. The starting final concentration of the compounds is 25 μM, and DMSO final concentration 0.1%. Mark the plate with compound code(s) and concentrations. Place the 96-well assay plate into CO2 incubator for 48 hours. Add 30 μl of Stead-Glo Luciferase System (Promega) reagent to each well and mix by gentle shaking on a plate shaker for 5 minutes to allow throughout cell lysis. Measure the luminescence with Envision (Perkin Elmer) with an integration time of 2 seconds. Record and analyze the data.
The cell culture media is DMEM complete: DMEM (Life Technologies #41965-039) supplemented with 10% FCS, 2 mM Glutamin (Life Technologies #25030-024), Penicillin (100 IU/ml)/Streptomycin (100 μg/ml) (Life Technologies #15140-114) and 1× nonessential amino acids (Life Technologies #11140-035). G418 (“Geneticin”, Life Technologies): concentrations are given as weight per volume of the original substance. Specific activity of a typical batch is ca. 700 μg/mg as stated by the manufacturer. […] Therefore each new batch of G418 should be tested individually e.g. in an electroporation experiment using different selection conditions (0.2-1 mg/ml).

SMILES	EC50
Cn1nc(C(=O)NC2CCN(CC3CCCCC3)CC2)c2ccc(N3CCCCCC3)nc21 [EBP987]	< 3 µM

Same assay, conditions: Hepatitis C virus, Huh-7, 48 h, Table 1; Huh7 HCV 1b replicon, luciferase reporter, 48 hours; read-out: 1b EC50

SMILES	EC50
CC1CC(NC(=O)c2nn(C)c3nc(N4CCCCCCC4)ccc23)CCN1CC1CCCCC1 (stereo not drawn) [compound 1151]	1.4 µM
Cn1nc(NC(=O)c2ccncc2)c2ccc(N3CCCC3)nc21 [compound 788]	9.5 µM
Cn1nc(C(=O)NC2CCCN(S(C)(=O)=O)C2)c2ccc(N3CCCCCC3)nc21 (stereo not drawn) [compound 700]	3.8 µM
Cn1nc(C(=O)Nc2cc[nH]n2)c2ccc(N3CCCCCC3)nc21 [compound 827]	3.2 µM
CCC(CC)Oc1ccc2c(C(=O)NC3CCCNC3)nn(Cc3ccc(Cl)cc3)c2n1 (stereo not drawn) [compound 794]	2.8 µM
Cn1nc(C(=O)NCC2CCCNC2)c2ccc(N3CCCCCC3)nc21 (stereo not drawn) [compound 872]	8.1 µM
Cn1nc(C(=O)NC2CCN(Cc3cccc(Cl)c3)CC2)c2ccc(N3CCCCCC3)nc21 [compound 1038]	3.4 µM
CC1CC(NCc2nn(C)c3nc(N4CCCCCC4)ccc23)CCN1 (stereo not drawn) [compound 909]	4 µM
Cn1nc(-c2nnc(C3CCCNC3)o2)c2ccc(N3CCCCCCC3)nc21 (stereo not drawn) [compound 1271]	3.2 µM
Cn1nc(C(=O)N[C@H]2CCNC2)c2ccc(N3CCCCCC3)nc21 [compound 822]	4.3 µM
CCCN1CCC(NC(=O)c2nn(C)c3nc(N4CCCCCC4)ccc23)CC1 [compound 1596]	1.4 µM
Cn1nc(C(=O)NC2CCNCC2)c2ccc(N3CCCC(c4ccccc4)CC3)nc21 (stereo not drawn) [compound 1026]	1.6 µM
Cn1nc(C(=O)NC2CCN(CC(F)F)CC2)c2ccc(NC3CCCCCCC3)nc21 [compound 1472]	1.4 µM
Cn1nc(CCCN2CCCC(CO)C2)c2ccc(N3CCCCCCC3)nc21 (stereo not drawn) [compound 1460]	2.7 µM
Cn1nc(C(=O)NC2CCNCC2)c2ccc(NCc3ccccc3)nc21 [compound 1042]	3.8 µM
Cn1nc(CNC2CCCNC2)c2ccc(N3CCCCCC3)nc21 (stereo not drawn) [compound 811]	2.9 µM
CC(C)n1nc(C(=O)NC2CCNCC2)c2ccc(N3CCCCCC3)nc21 [compound 857]	3.1 µM
CCC(CC)Oc1ccc2c(NC(=O)CC3CCCNC3)nn(C)c2n1 (stereo not drawn) [compound 952]	10 µM
Nc1nn(Cc2ccc(Cl)cc2)c2nc(N3CCCCCC3)ccc12 [compound 759]	8.6 µM

SMILES	EC50
Cn1nc(C(=O)NC2CCNCC2)c2ccc(NC3CCCCC3)nc21 [compound 862]	2.6 µM
CC(C)Cn1nc(C(=O)NC2CCNCC2)c2ccc(N3CCCCCC3)nc21 [compound 852]	2.9 µM
Cn1nc(CCCN2CCCCC2)c2ccc(N3CCCCCCC3)nc21 [compound 1172]	1.5 µM
Cn1nc(C(=O)NC2CCN(CC3CC3)CC2)c2ccc(N3CCCCCCC3)nc21 [compound 1222]	3.2 µM
Cn1nc(-c2c[nH]c(CC3CCNCC3)n2)c2ccc(N3CCCCCC3)nc21 [compound 1054]	8.6 µM
Cn1nc(NC(=O)c2cccnc2)c2ccc(N3CCCCCC3)nc21 [compound 838]	3.8 µM
Cn1nc(C(=O)NC2CCNCC2)c2ccc(OCc3ccccc3-c3ccccc3)nc21 [compound 969]	1.3 µM
CCN1CCC(NC(=O)c2nn(C)c3nc(NC4CCCCCCC4)ccc23)CC1 [compound 1474]	0.48 µM
COCC1CCN(CCN2CCC(NC(=O)c3nn(C)c4nc(N5CCCCCC5)ccc34)CC2)C1 (stereo not drawn) [compound 1557]	2.1 µM
Cn1nc(C(=O)NC2CCNCC2)c2ccc(OCc3ccccc3-c3cccnc3)nc21 [compound 1085]	2.2 µM
Cn1nc(C(=O)NC2CCNCC2)c2ccc(N3CCCN(Cc4ccccc4)CC3)nc21 [compound 1049]	6.1 µM
Cn1nc(-c2cnc(C3CCN(CC4CCCCC4)C3)s2)c2ccc(N3CCCCCCC3)nc21 (stereo not drawn) [compound 1268]	0.58 µM
Cn1nc(-c2nnc(C3CCN(CC4CCCCC4)C3)o2)c2ccc(N3CCCCCCC3)nc21 (stereo not drawn) [compound 1365]	2.6 µM
CN(c1ccc2c(C(=O)NC3CCNCC3)nn(C)c2n1)C1CCCCC1 [compound 892]	1.5 µM
O=C(Nc1n[nH]c2nc(N3CCCCCC3)ccc12)C1CCCNC1 (stereo not drawn) [compound 681]	8.5 µM
CN(c1ccc2c(C(=O)NC3CCN(CC4CCCCC4)CC3)nn(C)c2n1)C1CCCCCC1 [compound 1077]	1.6 µM
CCN1CCC(NC(=O)c2nn(C)c3nc(N4CCCCCCC4)ccc23)CC1C (stereo not drawn) [compound 1234]	1.9 µM
C[C@@H]1CCCN1CCCc1nn(C)c2nc(N3CCCCCCC3)ccc12 [compound 1499]	4 µM
Cn1nc(-c2cnc(C3CCCN(Cc4ccc(OC(F)F)cc4)C3)s2)c2ccc(N3CCCCCCC3)nc21 (stereo not drawn) [compound 1257]	2.4 µM

SMILES	EC50
O=C(NC1CCCNC1)c1n[nH]c2nc(OC3CCCCC3)ccc12 (stereo not drawn) [compound 728]	8 µM
CCn1nc(C(=O)NC2CCNCC2)c2ccc(N3CCCCCC3)nc21 [compound 856]	3.7 µM
CC1CCC(Oc2ccc3c(C(=O)NC4CCNCC4)nn(C)c3n2)CC1 (stereo not drawn) [compound 879]	3.9 µM
CCC(CC)Oc1ccc2c(C(=O)NC3CCCNC3)n[nH]c2n1 (stereo not drawn) [compound 725]	7.6 µM
Cn1nc(C(=O)NC2CCNCC2)c2ccc(NC3CCCCCC3)nc21 [compound 866]	1.1 µM
O=C(NC1CCNCC1)c1nn(-c2ccccc2)c2nc(N3CCCCCC3)ccc12 [compound 1350]	3.8 µM
Cn1nc(C(=O)NC2CCNCC2)c2ccc(OC3CCCCC3)nc21 [compound 817]	3.4 µM
C=CCCCCCn1nc(C(=O)NC2CCN(CC=C)CC2)c2ccc(N3CCCCCC3)nc21 [compound 1106]	8.1 µM
Cn1nc(-c2c[nH]c(C3CCCNC3)n2)c2ccc(N3CCCCCC3)nc21 (stereo not drawn) [compound 1095]	3.8 µM
Cn1nc(C(=O)NC2CCNCC2)c2ccc(OCc3ccccc3-c3ccc(Cl)cc3)nc21 [compound 1102]	0.62 µM
Cn1nc(-c2cnc(C(=O)NC3CCCN(CC(F)F)C3)s2)c2ccc(N3CCCCCCC3)nc21 (stereo not drawn) [compound 1322]	1.1 µM
Cn1nc(CNC2CCNCC2)c2ccc(N3CCCCCC3)nc21 [compound 976]	4.7 µM
CCN(CC)c1ccc2c(C(=O)NC3CCNCC3)nn(C)c2n1 [compound 860]	2.9 µM
Cn1nc(C(=O)NC2CCN(CC3CC3)CC2)c2ccc(NC3CCCCCCC3)nc21 [compound 1478]	0.56 µM
CCCN1CCC(NC(=O)c2nn(C)c3nc(N4CCCCCCC4)ccc23)CC1 [compound 1235]	3.4 µM
Cn1nc(-c2nnc(C3CCNCC3)o2)c2ccc(N3CCCCCC3)nc21 [compound 1125]	0.84 µM
O=C(NC1CCNCC1)c1nnc2n(Cc3ccc(Cl)cc3)c(N3CCCCCC3)ccc1-2 [compound 709]	8.7 µM
Clc1ccc(Cn2nc(CN3CCCC3)c3ccc(N4CCCCCC4)nc32)cc1 [compound 763]	8.7 µM
Cn1nc(NC(=O)[C@H]2CC[C@@H](N)CC2)c2ccc(N3CCCCCC3)nc21 [compound 844]	6.6 µM

Same assay, conditions: Table 1; Huh7 HCV 1b replicon, luciferase reporter, 48 hours; read-out: 1b EC50

SMILES	EC50
Cn1nc(C(=O)NC2CCNCC2)c2ccc(OC3CCCCC3)nc21 [compound 913]	4.7 µM
Cn1nc(C(=O)NC2CCN(CC3CCCCC3)CC2)c2ccc(NC3CCCCCCC3)nc21 [compound 1477]	0.53 µM
Cc1ccc(CN2CCC(NC(=O)c3nn(C)c4nc(N5CCCCCC5)ccc34)CC2)cc1 [compound 1045]	1.1 µM
Cn1nc(C(=O)NC2CC3CCCC(C2)N3)c2ccc(N3CCCCCC3)nc21 (stereo not drawn) [compound 880]	8.1 µM
Cn1nc(C(=O)NC2CCN(CC3CC3)CC2)c2ccc(N3CCCCCCC3)nc21 [compound 1300]	2.7 µM
